Data taken from patent publication US10562898B2, “Substituted benzenesulfonamides as inhibitors of alpha-4 beta-7 integrin activity” (EA PHARMA CO., LTD., priority 2016, dated 2020).

Target: T1, α4β1 integrin (Homo sapiens, UniProt P05556+P13612)
T1 construct: a cell line Jurkat, which is known to express α4β1 integrin; endogenous in cells; host or cells: Jurkat (human T cell line)
Test: VCAM-1/α4β1 integrin binding inhibitory activity evaluation test (Jurkat cells binding to VCAM-1/Fc)
Format: cell-based
Conditions: recombinant human VCAM-1/Fc
Method: (1) VCAM-1/α4β1 Integrin Binding Inhibitory Activity Evaluation Test
Each test substance was measured in terms of an ability to inhibit the VCAM-1 binding of a human T cell line, namely, a cell line Jurkat, which is known to express α4β1 integrin.
A solution of recombinant human VCAM-1/Fc (R&D Systems, Inc.) (1 μg/mL) diluted with a buffer A (carbonate buffer, pH 9.6) was placed in an amount of 50 μL/well in a 96-well microtiter plate, followed by incubation at 4° C. overnight. After the plate was washed with PBS once, 150 μL/well of Block Ace (Snow Brand Milk Products Co., Ltd.) was added, followed by incubation at room temperature for 2 hours. After removal, the plate was washed with PBS once.
Then, 100 μL of the Jurkat cells (2×10^6 cells/mL) and 100 μL of the test substance at each of various concentrations diluted with a binding buffer (DMEM containing 40 mM HEPES, 0.2% BSA, and 4 mM MnCl2) were added to the plate coated with the VCAM-1/Fc (5×10^5 cells/well), followed by incubation at 30° C. for 15 to 60 minutes. After the cells were bound to the wells, the plate was washed with PBS to remove unbound cells. A buffer C (PBS containing 1.5% Triton X-100) was added in an amount 50 μL/well to the plate to lyse the bound Jurkat cells. After 30 μL of a substrate buffer (Promega, CytoTox 96 Non-Radioactive Cytotoxicity Assay) was added to 30 μL of the cell lysate, a reaction was allowed to proceed at room temperature in the dark for 30 minutes. After 30 μL of a stop solution (Promega, CytoTox 96 Non-Radioactive Cytotoxicity Assay) was added to each, and then an absorbance at 490 nm was measured using a plate reader. The absorbance obtained here represents a detection result of an activity of lactate dehydrogenase (LDH) eluted in the supernatant of each well, that is, the absorbance is proportional to the number of Jurkat cells bound to the VCAM-1 and thus remaining on the plate. The test was performed in duplicate. Provided that the absorbance of a well containing no test substance was 100%, a cell binding rate with the test substance at each of the various concentrations was figured out, and a concentration IC50 which brought about 50% binding inhibition was calculated.

T1 sequence (P13612 34-1032): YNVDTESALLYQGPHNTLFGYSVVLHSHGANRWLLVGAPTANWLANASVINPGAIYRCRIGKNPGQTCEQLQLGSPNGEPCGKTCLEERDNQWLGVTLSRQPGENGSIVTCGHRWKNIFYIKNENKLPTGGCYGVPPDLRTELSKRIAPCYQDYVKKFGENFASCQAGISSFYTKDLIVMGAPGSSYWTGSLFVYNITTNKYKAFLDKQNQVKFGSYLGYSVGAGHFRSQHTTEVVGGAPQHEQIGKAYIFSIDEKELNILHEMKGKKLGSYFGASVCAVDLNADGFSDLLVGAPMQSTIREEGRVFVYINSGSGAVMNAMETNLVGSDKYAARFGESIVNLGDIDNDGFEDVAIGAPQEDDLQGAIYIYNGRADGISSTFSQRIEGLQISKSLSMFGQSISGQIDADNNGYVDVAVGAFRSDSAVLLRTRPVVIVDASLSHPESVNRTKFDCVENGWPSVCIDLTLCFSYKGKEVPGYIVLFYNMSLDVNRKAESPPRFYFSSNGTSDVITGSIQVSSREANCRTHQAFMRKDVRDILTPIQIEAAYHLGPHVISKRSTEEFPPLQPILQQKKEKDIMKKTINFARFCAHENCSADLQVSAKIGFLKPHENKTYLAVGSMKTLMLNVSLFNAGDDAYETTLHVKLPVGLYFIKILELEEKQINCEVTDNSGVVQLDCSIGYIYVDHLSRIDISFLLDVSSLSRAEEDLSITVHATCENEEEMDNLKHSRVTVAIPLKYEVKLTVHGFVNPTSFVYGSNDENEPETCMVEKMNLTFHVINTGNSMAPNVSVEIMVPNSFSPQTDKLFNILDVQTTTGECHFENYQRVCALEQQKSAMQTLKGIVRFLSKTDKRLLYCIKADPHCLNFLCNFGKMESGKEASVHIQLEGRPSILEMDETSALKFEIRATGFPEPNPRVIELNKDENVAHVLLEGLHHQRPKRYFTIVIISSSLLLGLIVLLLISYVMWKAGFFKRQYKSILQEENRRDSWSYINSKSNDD
T1 sequence (P05556 21-798): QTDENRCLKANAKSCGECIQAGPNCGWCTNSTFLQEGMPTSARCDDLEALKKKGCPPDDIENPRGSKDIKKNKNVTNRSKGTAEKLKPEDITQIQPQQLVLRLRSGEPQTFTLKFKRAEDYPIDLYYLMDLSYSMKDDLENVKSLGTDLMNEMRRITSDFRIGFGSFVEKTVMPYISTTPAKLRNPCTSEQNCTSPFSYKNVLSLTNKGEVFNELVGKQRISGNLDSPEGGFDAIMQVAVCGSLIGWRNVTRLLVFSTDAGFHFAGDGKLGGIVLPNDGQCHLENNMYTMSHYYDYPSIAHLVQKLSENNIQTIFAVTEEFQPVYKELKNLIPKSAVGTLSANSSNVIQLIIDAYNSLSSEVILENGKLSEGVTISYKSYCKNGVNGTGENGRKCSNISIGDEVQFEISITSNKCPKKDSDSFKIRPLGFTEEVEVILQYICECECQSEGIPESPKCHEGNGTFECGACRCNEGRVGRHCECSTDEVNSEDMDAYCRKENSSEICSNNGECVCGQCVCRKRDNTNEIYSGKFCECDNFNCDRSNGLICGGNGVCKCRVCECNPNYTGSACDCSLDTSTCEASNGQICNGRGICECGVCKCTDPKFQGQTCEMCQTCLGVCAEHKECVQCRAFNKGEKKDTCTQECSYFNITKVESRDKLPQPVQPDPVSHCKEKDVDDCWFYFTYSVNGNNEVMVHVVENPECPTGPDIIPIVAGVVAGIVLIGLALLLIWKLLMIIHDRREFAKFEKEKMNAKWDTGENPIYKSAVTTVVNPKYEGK

Compound	IC50
CCC(CC)C(=O)Nc1ccc(S(=O)(=O)Nc2cc(F)c(C(=O)N[C@@H](Cc3ccc(-n4c(=O)c(C)c(C)n(C)c4=O)cc3)C(=O)O)cc2F)cc1 [Compound A4]	2500 nM
Cn1c(=O)n(-c2ccc(C[C@H](NC(=O)c3cc(F)c(NS(=O)(=O)c4ccc(NC(=O)C5CCNCC5)cc4)cc3F)C(=O)O)cc2)c(=O)c2ccncc21 [Compound A6, (2S)-2-[[2,5-difluoro-4-[[4-(piperidine-4-carbonylamino)phenyl]sulfonylamino]benzoyl]amino]-3-[4-(1-methyl-2,4-dioxo-pyrido[3,4-d]pyrimidin-3-yl)phenyl]propanoic acid]	890 nM
Cn1c(=O)n(-c2ccc(C[C@H](NC(=O)c3cc(F)c(NS(=O)(=O)c4ccc(NC(=O)c5ccncc5)cc4)cc3F)C(=O)O)cc2)c(=O)c2ccncc21 [Compound A7]	2000 nM
Cc1c(C)n(C)c(=O)n(-c2ccc(C[C@H](NC(=O)c3cc(F)c(NS(=O)(=O)c4ccc(NC(=O)C(C)(C)C)cc4)cc3F)C(=O)O)cc2)c1=O [Compound A8]	1600 nM
Cn1c(=O)n(-c2ccc(C[C@H](NC(=O)c3cc(F)c(NS(=O)(=O)c4ccc(NC(=O)C(C)(C)C)s4)cc3F)C(=O)O)cc2)c(=O)c2ccncc21 [Compound A9]	160 nM
Cc1c(C)n(C)c(=O)n(-c2ccc(C[C@H](NC(=O)c3cc(F)c(NS(=O)(=O)c4ccc(NC(=O)C(C)(C)C)s4)cc3F)C(=O)O)cc2)c1=O [Compound A10]	400 nM
Cc1c(C)n(C)c(=O)n(-c2ccc(C[C@H](NC(=O)c3cc(F)c(NS(=O)(=O)c4cc(NC(=O)C(C)(C)C)cs4)cc3F)C(=O)O)cc2)c1=O [Compound A11]	3200 nM
Cn1c(=O)n(-c2ccc(C[C@H](NC(=O)c3cc(F)c(NS(=O)(=O)c4ccc(NC(=O)C(C)(C)C)c(F)c4)cc3F)C(=O)O)cc2)c(=O)c2ccncc21 [Compound A12]	1200 nM
COC1(C(=O)Nc2ccc(S(=O)(=O)Nc3cc(F)c(C(=O)N[C@@H](Cc4ccc(-n5c(=O)c(C)c(C)n(C)c5=O)cc4)C(=O)O)cc3F)cc2)CC1 [Compound A17]	1300 nM
Cn1c(=O)n(-c2ccc(C[C@H](NC(=O)c3cc(F)c(NS(=O)(=O)c4ccc(NC(=O)C(C)(C)CO)cc4)cc3F)C(=O)O)cc2)c(=O)c2ccncc21 [Compound A18]	720 nM
Cc1c(C)n(C)c(=O)n(-c2ccc(C[C@H](NC(=O)c3cc(F)c(NS(=O)(=O)c4ccc(NC(=O)C5(C(F)(F)F)CC5)cc4)cc3F)C(=O)O)cc2)c1=O [Compound A20]	850 nM
Cc1c(C)n(C)c(=O)n(-c2ccc(C[C@H](NC(=O)c3cc(F)c(NS(=O)(=O)c4ccc(NC(=O)C(C)(C)CO)cc4)cc3F)C(=O)O)cc2)c1=O [Compound A21]	680 nM
Cc1c(C)n(C)c(=O)n(-c2ccc(C[C@H](NC(=O)c3cc(F)c(NS(=O)(=O)c4ccc(NC(=O)C5(O)CC5)cc4)cc3F)C(=O)O)cc2)c1=O [Compound A22]	830 nM
Cn1c(=O)n(-c2ccc(C[C@H](NC(=O)c3cc(F)c(NS(=O)(=O)c4ccc(NC(=O)C5(O)CC5)cc4)cc3F)C(=O)O)cc2)c(=O)c2ccncc21 [Compound A23]	820 nM
Cc1c(C)n(C)c(=O)n(-c2ccc(C[C@H](NC(=O)c3cc(F)c(NS(=O)(=O)c4ccc(NC(=O)C(C)(C)C)nc4)cc3F)C(=O)O)cc2)c1=O [Compound A25]	2300 nM
Cn1c(=O)n(-c2ccc(C[C@H](NC(=O)c3cc(F)c(NS(=O)(=O)c4ccc(NC(=O)C5(c6ccccc6)CC5)cc4)cc3F)C(=O)O)cn2)c(=O)c2ccncc21 [Compound A29]	12000 nM
Cc1c(C)n(C)c(=O)n(-c2ccc(C[C@H](NC(=O)c3cc(F)c(NS(=O)(=O)c4ccc(NC(=O)C5(c6ccccc6)CC5)cc4)cc3F)C(=O)O)cc2)c1=O [Compound A30]	2700 nM
Cn1c(=O)n(-c2ccc(C[C@H](NC(=O)c3cc(F)c(NS(=O)(=O)c4ccc(NC(=O)C(C)(C)C)cn4)cc3F)C(=O)O)cn2)c(=O)c2ccncc21 [Compound A31]	1900 nM
Cn1c2c(c(=O)n(-c3ccc(C[C@H](NC(=O)c4cc(F)c(NS(=O)(=O)c5ccc(NC(=O)C(C)(C)C)cc5)cc4F)C(=O)O)cc3)c1=O)COCC2 [Compound A33]	1000 nM
Cc1c(C)n(C)c(=O)n(-c2ccc(C[C@H](NC(=O)c3cc(F)c(NS(=O)(=O)c4ccc(N(C)C(=O)C(C)(C)C)cc4)cc3F)C(=O)O)cc2)c1=O [Compound A35]	3800 nM
Cn1ccc(=O)n(-c2ccc(C[C@H](NC(=O)c3cc(F)c(NS(=O)(=O)c4ccc(NC(=O)C(C)(C)C)cc4)cc3F)C(=O)O)cc2)c1=O [Compound A42]	2500 nM

Further lines, results first:

IC50	Compound
440 nM	Cn1c(=O)n(-c2ccc(C[C@H](NC(=O)c3cc(F)c(NS(=O)(=O)c4ccc(NC(=O)C(C)(C)C)cc4)cc3F)C(=O)O)cc2)c(=O)c2ccncc21 [Compound A1, (2S)-2-[[4-[[4-(2,2-dimethylpropanoylamino)phenyl]sulfonylamino]-2,5-difluoro-benzoyl]amino]-3-[4-(1-methyl-2,4-dioxo-pyrido[3,4-d]pyrimidin-3-yl)phenyl]propanoic acid]
1100 nM	CC(=O)Nc1ccc(S(=O)(=O)Nc2cc(F)c(C(=O)N[C@@H](Cc3ccc(-n4c(=O)c5ccncc5n(C)c4=O)cc3)C(=O)O)cc2F)cc1 [Compound A2]
2400 nM	CCC(CC)C(=O)Nc1ccc(S(=O)(=O)Nc2cc(F)c(C(=O)N[C@@H](Cc3ccc(-n4c(=O)c5ccncc5n(C)c4=O)cc3)C(=O)O)cc2F)cc1 [Compound A3]
2000 nM	Cn1c(=O)n(-c2ccc(C[C@H](NC(=O)c3cc(F)c(NS(=O)(=O)c4ccc(NC(=O)NC(C)(C)C)cc4)cc3F)C(=O)O)cc2)c(=O)c2ccncc21 [Compound A5]
550 nM	Cn1c(=O)n(-c2ccc(C[C@H](NC(=O)c3cc(F)c(NS(=O)(=O)c4ccc(NC(=O)C5CCOCC5)cc4)cc3F)C(=O)O)cc2)c(=O)c2ccncc21 [Compound A14]
950 nM	Cc1c(C)n(C)c(=O)n(-c2ccc(C[C@H](NC(=O)c3cc(F)c(NS(=O)(=O)c4ccc(NC(=O)C5CCOCC5)cc4)cc3F)C(=O)O)cc2)c1=O [Compound A15]
1200 nM	COC1(C(=O)Nc2ccc(S(=O)(=O)Nc3cc(F)c(C(=O)N[C@@H](Cc4ccc(-n5c(=O)c6ccncc6n(C)c5=O)cc4)C(=O)O)cc3F)cc2)CC1 [Compound A16]
370 nM	Cc1c(C)n(C)c(=O)n(-c2ccc(C[C@H](NC(=O)c3cc(F)c(NS(=O)(=O)c4ccc(NC(=O)C(C)(C)C)cn4)cc3F)C(=O)O)cc2)c1=O [Compound A19]
1400 nM	Cn1c(=O)n(-c2ccc(C[C@H](NC(=O)c3cc(F)c(NS(=O)(=O)c4ccc(NC(=O)C5(C(F)(F)F)CC5)cc4)cc3F)C(=O)O)cc2)c(=O)c2ccncc21 [Compound A24]
4600 nM	Cn1c(=O)n(-c2ccc(C[C@H](NC(=O)c3cc(F)c(NS(=O)(=O)c4ccc(NC(=O)C(C)(C)C)cc4)cc3F)C(=O)O)cn2)c(=O)c2ccncc21 [Compound A26]
910 nM	Cn1c2c(c(=O)n(-c3ccc(C[C@H](NC(=O)c4cc(F)c(NS(=O)(=O)c5ccc(NC(=O)C(C)(C)C)cc5)cc4F)C(=O)O)cc3)c1=O)CCOC2 [Compound A27]
3600 nM	Cc1c(C)n(C)c(=O)n(-c2ccc(C[C@H](NC(=O)c3cc(F)c(NS(=O)(=O)c4ccc(NC(=O)C(C)(C)C)cc4)cc3F)C(=O)O)cn2)c1=O [Compound A28]
4400 nM	Cc1c(C)n(C)c(=O)n(-c2ccc(C[C@H](NC(=O)c3cc(F)c(NS(=O)(=O)c4ccc(NC(=O)C(C)(C)C)cn4)cc3F)C(=O)O)cn2)c1=O [Compound A32]
3600 nM	Cc1c(C)n(C)c(=O)n(-c2ccc(C[C@H](NC(=O)c3cc(F)c(NS(=O)(=O)c4ccc(-n5ccc(C6CCOCC6)cc5=O)cc4)cc3F)C(=O)O)cc2)c1=O [Compound A34]
1800 nM	COc1cc2c(=O)n(-c3ccc(C[C@H](NC(=O)c4cc(F)c(NS(=O)(=O)c5ccc(NC(=O)C(C)(C)C)cc5)cc4F)C(=O)O)cc3)c(=O)n(C)c2cn1 [Compound A36]
4100 nM	Cc1cn(C)c(=O)n(-c2ccc(C[C@H](NC(=O)c3cc(F)c(NS(=O)(=O)c4ccc(NC(=O)C(C)(C)C)cc4)cc3F)C(=O)O)cc2)c1=O [Compound A37]
4000 nM	CN1C(=O)N(c2ccc(S(=O)(=O)Nc3cc(F)c(C(=O)N[C@@H](Cc4ccc(-n5c(=O)c6ccncc6n(C)c5=O)nc4)C(=O)O)cc3F)cc2)C(=O)C1(C)C [Compound A38]
2300 nM	Cn1c2c(c(=O)n(-c3ccc(C[C@H](NC(=O)c4cc(F)c(NS(=O)(=O)c5ccc(NC(=O)C(C)(C)C)cc5)cc4F)C(=O)O)cn3)c1=O)CCOC2 [Compound A40]
480 nM	CN1CCc2c(n(C)c(=O)n(-c3ccc(C[C@H](NC(=O)c4cc(F)c(NS(=O)(=O)c5ccc(NC(=O)C(C)(C)C)cc5)cc4F)C(=O)O)cc3)c2=O)C1 [Compound A41]
